Measured values: article PMC8335727 (Inorganic Chemistry, 2021)
Read-outs that look alike come from different tables or passages of the source.

How the values were obtained:
[1] = system: Colo205; assay: MTT cytotoxicity assay, Colo205; format: cell-based; settings: Homo sapiens, COLO 205, 72 h of exposure
Method: (§1) The in vitro cytotoxicity of the TSCs HL^1–HL^3, copper(II) complexes Cu(HL^1)Cl2, [Cu(L^2)Cl], and Cu(HL^3)Cl2, and oxidized TSCs HL^1a′, HL^1a″, and HL^2c′·CH3COOH was tested in the doxorubicin-sensitive Colo205 and the multidrug-resistant Colo320 human colonic adenocarcinoma cell lines as well as in normal human embryonal lung fibroblast cells (MRC-5) by the colorimetric MTT assay. […]
(§2) 2.5. In vitro cell studies
(§3) 2.5.1. Cell lines and culture conditions
(§4) All cell culture reagents were obtained from Sigma-Aldrich and plastic ware from Sarstedt
(§5) (Germany). Doxorubicin-sensitive human colonic Colo 205 and multidrug resistant
(§6) Colo 320/MDR-LRP adenocarcinoma cell lines were purchased from LGC Promochem,
(§7) Teddington, UK. The cells were cultured in Roswell Park Memorial Institute (RPMI) 1640
(§8) medium supplemented with 10% heat-inactivated fetal bovine serum, 2 mM L-glutamine, 1 mM
(§9) Na-pyruvate and 100 mM Hepes. The cell lines were incubated at 37°C, in a 5% CO2, 95% air
(§10) MRC-5 human embryonal lung fibroblast cell line (ATCC CCL-171) was purchased from LGC
(§11) Promochem, Teddington, UK. The cell line was cultured in Eagle’s Minimal Essential Medi um
(§12) (EMEM, containing 4.5 g/L glucose) supplemented with a non-essential amino acid mixture, a
(§13) selection of vitamins and 10% heat-inactivated fetal bovine serum. The cells were incubated at
(§14) 37°C, in a 5% CO2, 95% air atmosphere. All cell lines were detached with Trypsin-Versene
(§15) (EDTA) solution for 5 min at 37 °C.
(§16) The tested compounds were dissolved in DMSO using 10 mM concentration. Then stock solutions
(§17) were diluted in complete culture medium in 96-well microtiter plates, and two-fold serial dilutions
(§18) of compounds were prepared in 100 µL of RPMI 1640, horizontally. The semi-adherent colonic
(§19) adenocarcinoma cells were treated with Trypsin -Versene (EDTA) solution. They were adjusted to
(§20) a density of 1×10^4 cells in 100 µL of RPMI 1640 medium, and were added to each well, with the
(§21) exception of the medium control wells. The final volume of the wells containing compounds and
(§22) cells was 200 µL. The culture were incubated at 37 °C for 72 h; at the end of the incubation period,
(§23) 20 µL of MTT solution (from a stock solution of 5 mg/mL) were added to each well. After
(§24) incubation at 37 °C for 4 h, 100 µL of SDS solution (10% in 0.01 M HCI) were added to each well
(§25) and the plates were further incubated at 37 °C overnight. The cell growth was determined using
(§26) both methods by measuring the optical density (OD) at 450 nm (ref. 620 nm) with a Multiscan EX
(§27) ELISA reader. Inhibition of the cell growth (expressed as IC 50: inhibitory concentration that
(§28) reduces by 50% the growth of the cells exposed to the tested compounds) was determined from
(§29) the sigmoid curve where 100 – ((ODsample ‒ ODmedium control)/(ODcell control ‒ ODmedium control)) × 100
(§30) values were plotted against the logarithm of compound concentrations. […]
(§31) 0.76 tyrosyl radical/polypeptide. Samples containing 20 µM mR2 in 50 mM HEPES buffer, pH
(§32) 7.50/100 mM NaCl, and 20 µM respective compound in 1% (v/v) DMSO/H2O, and 2 mM

[2] = system: Colo320; assay: MTT cytotoxicity assay, Colo320; format: cell-based; settings: Homo sapiens, COLO 320, 72 h of exposure
Method: as §1, §2, §3, §4, §5, §6, §7, §8, §9, §10, §11, §12, §13, §14, §15, §16, §17, §18, §19, §20, §21, §22, §23, §24, §25, §26, §27, §28, §29, §30, §31, §32

[3] = system: MRC-5; assay: MTT cytotoxicity assay, MRC-5; format: cell-based; settings: Homo sapiens, MRC5, 72 h of exposure
Method: as §2, §3
All cell culture reagents were obtained from Sigma-Aldrich and plastic ware from Sarstedt […]
as §10, §11, §12, §13, §14, §15, §16, §17, §18, §19, §20, §21, §22, §23, §24, §25, §26, §27, §28, §29, §30

[4] = target: T1, mouse R2 RNR protein (Mus musculus, UniProt P11157); assay: Tyrosyl radical reduction in mouse R2 RNR protein (EPR); format: biochemical; settings: 2 mM DTT
T1 construct: made in house
T1 sequence (P11157 1-390): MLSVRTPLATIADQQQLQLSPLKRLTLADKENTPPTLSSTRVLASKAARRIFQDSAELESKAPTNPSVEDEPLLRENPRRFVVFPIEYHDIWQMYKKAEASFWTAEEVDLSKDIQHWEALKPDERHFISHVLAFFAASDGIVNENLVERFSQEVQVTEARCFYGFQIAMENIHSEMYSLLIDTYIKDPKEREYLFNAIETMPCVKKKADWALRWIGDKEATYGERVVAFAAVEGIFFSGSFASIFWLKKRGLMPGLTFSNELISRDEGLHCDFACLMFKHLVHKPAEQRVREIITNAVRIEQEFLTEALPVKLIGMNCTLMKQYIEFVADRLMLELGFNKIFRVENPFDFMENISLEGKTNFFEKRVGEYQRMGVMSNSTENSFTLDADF
Method: The time-dependent tyrosyl radical reduction in mR2 RNR by equimolar concentrations of TSCs and their respective copper(II) complexes, under reducing conditions, is shown in Figure 15. […] The favorable impact of the copper(II) coordination on the HL^2 inhibitory activity is quite obvious, when the ability to quench the tyrosyl radical by HL^2 is compared to that of 2′.
The samples contained 20 μM mR2 in 50 mM HEPES buffer, pH 7.60/100 mM KCl, 20 μM compound in 1% (v/v) DMSO/H2O, and 2 mM DTT. […]
2.6. Tyrosyl radical reduction in mouse R2 RNR protein
The tyrosyl radical reduction in mR2 protein by HL1, HL2, HL3, Cu(HL1)Cl2, [Cu(L2)Cl],
Cu(HL3)Cl2, HL1a’, HL1a’’, and HL2c´·CH3COOH was measured by EPR spectroscopy at 30 K,
on a Bruker Elexsys II E540 EPR spectrometer with an Oxford Instruments ER 4112HV helium
cryostat, as described previously.12,13 mR2 protein was expressed, purified, and iron -reconstituted
as described previously, 14 and passed through a 5 mL HiTrap desalting column (GE Healthcare)
as §31, §32
dithiothreitol (DTT) were incubated for indicated times and quickly frozen in cold isopentane. The
same samples were used for repeated incubations at room temperature. […]
Furthermore, the intrinsic reaction coordinate (IRC) analysis was
performed to authenticate that the transition state pertains to the desired reaction coordinate. The
IRC calculations were done at the B3LYP/6-311++G(d,p) level of theory. Molecular orbitals were
drawn using Molekel software.17
3. Schemes for assignment of resonances in HL1 – HL3 and their isomers
Scheme S1. The atom numbering for the assignment of resonances in HL1 – HL3.
(1 picture or pasted object on this page, not shown here)

[5] = system: Colo320 cells; assay: Annexin-V-FITC/PI apoptosis induction assay (flow cytometry); format: cell-based, human; settings: 3 h induction
Method: To gain further insights into the cytotoxic behavior of the compounds, apoptosis induction by lead compounds HL^1 and [Cu(L^2)Cl] was investigated by a flow cytometry analysis of multidrug-resistant Colo320 cells stained with Annexin-V-FITC and propidium iodide (PI).
Colo320 cells were treated at the indicated concentration of the drugs. The dual parametric dot plots that combine the Annexin-V (FL1) and PI (FL3) fluorescence show the viable cell population in the lower-left quadrant Annexin-V–/PI– (Q4), the early apoptotic cells in the lower-right quadrant Annexin-V+/PI– (Q3), and the late apoptotic and necrotic cells in the upper-right quadrant Annexin-V+/PI+ (Q2). […]
2.5.3. Mechanisms of cell death: assay for apoptosis induction
The assay was carried out for selected compounds using an Annexin V-FITC Apoptosis Detection
Kit (Cat. No. APOAF-50TST) from Sigma according to the manufacturer's instructions. The
concentration of the Colo320 cell suspension was adjusted to approximately 0.5 × 10^6 cells per
mL in RPMI medium and the cell suspension was distributed in 1 mL aliquots into a 24-well plate,
and then incubated overnight at 37 °C and 5% CO2. On the following day, the medium was
removed and replaced by 1 mL RPMI medium containing the compounds except the control
samples. Colo320 cells were incubated in the presence of the compounds at 4 and 8 μM (HL1), or
0.25 and 0.50 μM (Cu(HL2)Cl2) in the 24-well plate at 37 °C for 3 h, and 12H-
controls. After the incubation period the samples were washed with PBS and fresh RPMI medium
was added to the samples. The cells were incubated overnight at 37 °C and 5% CO2. The next day,
200 μL 0.25% Trypsin (Trypsin-Versen) was added to the samples until cells appeared detached
followed by the addition of 400 μL of RPMI medium supplemented with 10% bovine serum. The
cells were collected in Eppendorf tubes and centrifuged at 2000 g for 2 min. The harvested cells
were resuspended in fresh serum free RPMI medium culture medium. After this step, the apoptosis
assay was carried out according to the instructions of the manufacturer. The fluorescence was
analyzed immediately using a ParTec CyFlow flow cytometer (Partec GmbH, Münster, Germany). […]

[6] = system: Colo205; design: method as in doi:10.1039/D0NJ01070G; settings: 72 h of exposure; ref [77]; cited from earlier work
[7] = system: Colo320; design: method as in doi:10.1039/D0NJ01070G; settings: 72 h of exposure; ref [77]; cited from earlier work
[8] = design: method as in earlier work; settings: cited from earlier work
[9] = system: SW480, MES-SA, MES-SA/Dx5, HL60, 41M, SK-BR-3; design: method as in PMID 32336116, PMID 22189939, PMID 31250199; settings: several human cancer cells; ref [36],[58],[80]; read-out: IC50 values reported; cited from earlier work
[10] = pH 7.4; cited from earlier work

CC(=NNc1nc2cc(C)c(O)c(C)c2s1)c1ccccn1 [HL^2c′·CH3COOH]
IC50 [1]: 2.73 ± 0.059 µM
IC50 [2]: 0.188 ± 0.041 µM
IC50 [3]: 2.15 ± 0.1 µM
tyrosyl radical reduction (comparison in words) ([4]; 20 μM compound): as potent as HL^3

c1ccc2c(c1)Nc1c(ccc3ccccc13)S2 [M627, 12H-Benzophenothiazine, reference compound]
Cell death % Q1 ([5]; 10 µM): 4.59%
Early apoptosis % Q3 ([5]; 10 µM): 12.4%
Late apoptosis and necrosis % Q2 ([5]; 10 µM): 31.5%
Cell death % Q1 ([5]; 20 µM): 7.85%
Early apoptosis % Q3 ([5]; 20 µM): 11.1%
Late apoptosis and necrosis % Q2 ([5]; 20 µM): 26.1%

N.N.[Cl][Pt][Cl] [cisplatin, reference compound]
Cell death % Q1 ([5]; 15 µM): 1.64%
Early apoptosis % Q3 ([5]; 15 µM): 1.68%
Late apoptosis and necrosis % Q2 ([5]; 15 µM): 2.24%
Cell death % Q1 ([5]; 30 µM): 0.79%
Early apoptosis % Q3 ([5]; 30 µM): 4.90%
Late apoptosis and necrosis % Q2 ([5]; 30 µM): 4.07%

COc1cccc2c1C(=O)c1c(O)c3c(c(O)c1C2=O)C[C@@](O)(C(=O)CO)C[C@@H]3O[C@H]1C[C@H](N)[C@H](O)[C@H](C)O1 [doxorubicin]
IC50 [6]: 3.28 µM
IC50 [7]: 3.12 µM

NC(=O)NO [hydroxyurea]
redox potential [8]: +0.724 V

NC(=S)N/N=C/c1ncccc1N [triapine, 3-aminopyridine-2-carboxaldehyde TSC, reference compound]
IC50 [1]: 3.34 ± 0.12 µM
IC50 [2]: 4.21 ± 0.46 µM
mR2 inhibition potency order ([4]; equimolar 20 μM compound and mR2): HL^1 ≈ triapine > HL^3 > HL^2
IC50 [9]: 0.4 to 2.6 µM
log D7.4 [10]: +0.85
